Measurements reported in patent US11439633B2, “Tetrahydroquinoline derivatives as P2X7 receptor antagonists” (RaQualia Pharma Inc., priority 2017, dated 2022).

Each compound was assayed against human P2X7 (Homo sapiens (Human), UniProt Q99572) (assay: Human P2X7 functional assay (Ca2+ influx, Fluo-4, FDSS, BzATP activation)). Conditions: antagonistic activity with respect to the human P2X7 receptor; BzATP final concentration 80 microM; 7-point dose-response.
Assay type: cell-based
Protocol: Human P2X7 Functional Assay
(§1) The functional activity of compounds was determined by measuring changes in intracellular calcium concentration using a Ca^2+-sensitive fluorescent dye, Fluo-4 (Molecular Probes). The changes in fluorescent signal were monitored by the cell imaging technology by Hamamatsu Photonics's Functional Drug Screening System (FDSS). Increases in intracellular Ca^2+ concentration were readily detected upon activation with BzATP.
(§2) HEK293 cells stably expressing human P2X7 (GenBank accession number BC011913) carrying a C-terminal FLAG tag were grown in T225 flasks, in a 5% CO2 humidified incubator to about 80% confluence. Media composition consisted of Dulbecco's Modified Eagle Medium (high glucose), 10% fetal bovine serum ([…]), 100 units/microM Penicillin, 100 microg/mL Streptomycin and 250 microg/mL Geneticine.
1. Plate-out HEK293-human P2X7 cells (40 microL medium containing 10,000 cells per well) into poly-D-lysine coated 384-well plates (Corning) at 24 h prior to assay.
2. Incubate at 37° C. in 5% CO2.
3. Incubate the plate at 37° C. in 5% CO2 for 1 h.
5. Test compounds were prepared at 100× the test concentration in DMSO by serial dilution with Biomek-FX liquid handling instrument. 33× diluted compound solutions in assay buffer were prepared in intermediate compound plate with Biomek-NX liquid handling instrument. A further 3× dilution occurred in below steps 6 and 7.
6. Add 20 microL of 33× diluted compound solutions into each well and leave the plate for 10 min under the dark at room temperature.
7. Measure activity by FDSS as follows: • Set the assay plate on the stacker of FDSS. • Start the detection of fluorescence intensity at 540 nm by 480 nm exicitation. • After 30 seconds, add 20 microL of assay buffer containing 240 microM BzATP (final concentration 80 microM).
IC50 values for compounds of the present invention were determined from 7-point dose-response studies. Curves were generated using the average of duplicate wells for each data point. Finally, the IC50 values are calculated with the best-fit dose curve determined by XLfit (ID Business Solutions Ltd.).

Chain of human P2X7 (Q99572 whole entry): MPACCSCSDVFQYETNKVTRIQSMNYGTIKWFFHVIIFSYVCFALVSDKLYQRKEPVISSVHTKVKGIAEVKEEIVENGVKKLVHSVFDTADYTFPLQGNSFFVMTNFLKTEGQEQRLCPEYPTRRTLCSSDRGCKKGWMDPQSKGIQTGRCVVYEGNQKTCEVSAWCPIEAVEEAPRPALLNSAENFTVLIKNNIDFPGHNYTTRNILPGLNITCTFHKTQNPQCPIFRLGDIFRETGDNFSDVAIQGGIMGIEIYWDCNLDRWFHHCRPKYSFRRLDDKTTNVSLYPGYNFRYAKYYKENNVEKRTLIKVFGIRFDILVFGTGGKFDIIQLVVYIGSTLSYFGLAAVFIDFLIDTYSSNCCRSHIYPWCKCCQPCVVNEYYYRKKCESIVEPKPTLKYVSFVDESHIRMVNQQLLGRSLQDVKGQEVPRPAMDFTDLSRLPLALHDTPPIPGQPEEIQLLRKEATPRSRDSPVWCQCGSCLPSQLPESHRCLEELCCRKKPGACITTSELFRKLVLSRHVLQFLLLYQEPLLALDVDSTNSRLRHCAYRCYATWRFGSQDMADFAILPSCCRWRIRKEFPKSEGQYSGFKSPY

| SMILES | IC50 [nM] |
| --- | --- |
| C[C@]1(O)CC[C@@](F)(C(=O)NC2CC2c2ccc(Cl)cc2Cl)c2cccnc21 (stereo partly drawn) [Example 273, (5S,8S)-N-((trans)-2-(2,4-dichlorophenyl)cyclopropyl)-5-fluoro-8-hydroxy-8-methyl-5,6,7,8-tetrahydro-quinoline-5-carboxamide] | < 50 |
| C[C@]1(O)CC[C@@](F)(C(=O)NCc2c(F)cc(F)cc2Cl)c2cccnc21 [Example 266, (5S,8S)-N-(2-chloro-4,6-difluorobenzyl)-5-fluoro-8-hydroxy-8-methyl-5,6,7,8-tetrahydroquinoline-5-carboxamide] | < 50 |
| O=C(NCc1ccc(F)c(F)c1Cl)[C@]1(F)CC[C@H](O)c2ncccc21 [Example 174, (5S,8S)-N-(2-chloro-3,4-difluorobenzyl)-5-fluoro-8-hydroxy-5,6,7,8-tetra-hydroquinoline-5-carboxamide] | < 50 |
| O=C(NCc1cccc(C(F)(F)F)c1F)[C@]1(F)CC[C@H](O)c2ncccc21 [Example 175, (5S,8S)-5-fluoro-N-(2-fluoro-3-(trifluoromethyl)benzyl)-8-hydroxy-5,6,7,8-tetrahydroquinoline-5-carboxamide] | < 50 |
| O=C(NCc1c(F)cccc1C(F)(F)F)[C@]1(F)CC[C@H](O)c2ncccc21 [Example 186, (5S,8S)-5-fluoro-N-(2-fluoro-6-(trifluoromethyl)benzyl)-8-hydroxy-5,6,7,8-tetrahydroquinoline-5-carboxamide] | < 50 |
| O=C(NCc1ccc(F)cc1C(F)(F)F)[C@]1(F)CC[C@H](O)c2ncccc21 [Example 144, (5S,8S)-5-fluoro-N-(4-fluoro-2-(trifluoromethyl)benzyl)-8-hydroxy-5,6,7,8-tetrahydroquinoline-5-carboxamide] | < 50 |
| CS(=O)(=O)C1CC[C@@](F)(C(=O)NCc2ccc(Cl)cc2Cl)c2cccnc21 (stereo partly drawn) [Example 350, (5S)-N-(2,4-dichlorobenzyl)-5-fluoro-8-(methylsulfonyl)-5,6,7,8-tetrahydroquinoline-5-carboxamide] | < 50 |
| O=C(NCc1c(Cl)cc(Cl)cc1CO)C1CCC(O)c2ncccc21 (stereo not drawn) [Example 9, N-(2,4-dichloro-6-(hydroxymethyl)benzyl)-8-hydroxy-5,6,7,8-tetrahydroquinoline-5-carboxamide] | < 50 |
| C[C@]1(O)CC[C@@](F)(C(=O)NCc2ccc(Cl)c(F)c2F)c2cccnc21 [Example 267, (5S,8S)-N-(4-chloro-2,3-difluorobenzyl)-5-fluoro-8-hydroxy-8-methyl-5,6,7,8-tetrahydroquinoline-5-carboxamide] | < 50 |
| O=C(NCc1cc(Br)ccc1Cl)[C@]1(F)CC[C@H](O)c2ncccc21 [Example 181, (5S,8S)-N-(5-bromo-2-chlorobenzyl)-5-fluoro-8-hydroxy-5,6,7,8-tetra-hydroquinoline-5-carbox-amide] | < 50 |
| O=C(NCCc1ccc(Cl)cc1Cl)[C@]1(F)CC[C@H](O)c2ncccc21 [Example 191, (5S,8S)-N-(2,4-dichloro-phenethyl)-5-fluoro-8-hydroxy-5,6,7,8-tetrahydro-quinoline-5-carboxamide] | < 50 |

Next, values leading:

| IC50 [nM] | SMILES |
| --- | --- |
| < 50 | O=C(NCc1c(F)cc(Cl)cc1Cl)[C@]1(F)CC[C@H](O)c2ncccc21 [Example 152, (5S,8S)-N-(2,4-dichloro-6-fluorobenzyl)-5-fluoro-8-hydroxy-5,6,7,8-tetrahydroquinoline-5-carboxamide] |
| < 50 | Cc1cccc(Cl)c1CNC(=O)[C@]1(F)CC[C@H](O)c2ncccc21 [Example 161, (5S,8S)-N-(2-chloro-6-methylbenzyl)-5-fluoro-8-hydroxy-5,6,7,8-tetra-hydroquinoline-5-carbox-amide] |
| < 50 | Cc1cc(Cl)cc(Cl)c1CNC(=O)[C@]1(F)CC[C@H](O)c2ncccc21 [Example 127, (5S,8S)-N-(2,4-dichloro-6-methylbenzyl)-5-fluoro-8-hydroxy-5,6,7,8-tetrahydroquinoline-5-carboxamide] |
| < 50 | CO[C@H]1CC[C@@](F)(C(=O)NCc2c(F)cc(Cl)cc2Cl)c2cccnc21 [Example 335, (5S,8S)-N-(2,4-dichloro-6-fluorobenzyl)-5-fluoro-8-methoxy-5,6,7,8-tetrahydroquinoline-5-carboxamide] |
| < 50 | C[C@]1(O)CC[C@@](F)(C(=O)NCc2c(F)cc(Cl)cc2Cl)c2cccnc21 [Example 265, (5S,8S)-N-(2,4-dichloro-6-fluorobenzyl)-5-fluoro-8-hydroxy-8-methyl-5,6,7,8-tetrahydroquinoline-5-carboxamide] |
| < 50 | Cc1cc(Cl)cc(Cl)c1CNC(=O)[C@@]1(F)CC[C@@H](O)c2ncccc21 [Example 126, (5R,8R)-N-(2,4-dichloro-6-methylbenzyl)-5-fluoro-8-hydroxy-5,6,7,8-tetrahydroquinoline-5-carboxamide] |

What follows are compounds tested against rat P2X7 (Rattus norvegicus (Rat), UniProt Q64663) (assay: Rat P2X7 functional assay (Ca2+ influx, Fluo-4, FDSS, BzATP activation)). Conditions: HEK293 cells stably expressing rat P2X7; BzATP final 10 microM; read-out: Antagonistic activities with respect to the rat P2X7 receptor (IC50).
Assay type: cell-based
Protocol: Rat P2X7 Functional Assay
as §1
as §2, with “rat” for “human”, “NM_019256)” for “BC011913) carrying a C-terminal FLAG tag”, “Corning CellBIND cell culture” for “T225”, “units/[…]” for “units/microM”
1. […]
7. Measure activity by FDSS as follows: • Set the assay plate on the stacker of FDSS. • Start the detection of fluorescence intensity at 540 nm by 480 nm exicitation. • After 30 seconds, add 20 microL of assay buffer containing 30 microM BzATP (final 10 microM).
IC50 values for compounds of the present invention were determined from 7-point dose-response studies. […] Finally, the IC50 values are calculated with the best-fit dose curve determined by XLfit (ID Business Solutions Ltd.).

Chain of rat P2X7 (Q64663 whole entry): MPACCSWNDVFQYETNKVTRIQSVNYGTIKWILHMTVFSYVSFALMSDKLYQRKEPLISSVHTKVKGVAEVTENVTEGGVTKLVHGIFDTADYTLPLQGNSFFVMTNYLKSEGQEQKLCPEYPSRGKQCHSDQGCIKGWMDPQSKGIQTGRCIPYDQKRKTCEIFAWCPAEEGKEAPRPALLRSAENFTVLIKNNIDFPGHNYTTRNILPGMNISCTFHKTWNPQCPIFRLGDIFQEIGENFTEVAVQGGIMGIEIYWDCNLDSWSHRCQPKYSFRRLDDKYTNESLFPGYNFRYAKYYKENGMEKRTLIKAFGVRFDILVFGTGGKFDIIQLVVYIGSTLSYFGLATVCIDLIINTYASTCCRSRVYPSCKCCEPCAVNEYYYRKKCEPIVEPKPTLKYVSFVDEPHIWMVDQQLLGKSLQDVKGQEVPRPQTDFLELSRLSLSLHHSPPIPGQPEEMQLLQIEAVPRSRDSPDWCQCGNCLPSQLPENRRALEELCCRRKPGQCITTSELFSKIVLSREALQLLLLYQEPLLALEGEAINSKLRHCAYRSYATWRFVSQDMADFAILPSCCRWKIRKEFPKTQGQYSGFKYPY

| IC50 [nM] | SMILES |
| --- | --- |
| < 1000 | Cc1cc(Cl)cc(Cl)c1CNC(=O)[C@@H]1CC[C@H](O)c2ncccc21 [Example 64, (5R,8S)-N-(2,4-dichloro-6-methylbenzyl)-8-hydroxy-5,6,7,8-tetrahydroquinoline-5-carboxamide] |
